Here are results for 2 compounds from patent publication US8431530B2, “Compositions and methods for treating aids or cancer by inhibiting the secretion of microparticles” (priority 2009, dated 2013).

For data set [1] the following is noted: lower doses could be less toxic; cited from earlier work.
The test system of the next data set is human tumor cell lines. Particulars: cited from earlier work.
The target in a further data set is Mortalin (Homo sapiens, UniProt P38646). Particulars: literature; inactivates chaperone function; cited from earlier work.
Data set [2] has as its system NefGFP release from HEK293 cells. As to the kind of experiment: Nef-GFP co-transfection secretion assay, GFP fluorescence of supernatant. The format is cell-based. Particulars: HEK293, 0.5 μg Nef-GFP + 0.5 μg peptide, Chariot, 48 h; relative to NefGFP+sM1 (100%). The procedure:
Therefore, a set of co-transfection experiments were performed. HEK293 cells were co-transfected with 0.5 μg of pQBI-HIV Nef-GFP (expresses wild type Nef protein) and either 0.5 μg of HIV-1 Nef SMRwt or SMRmut peptide or sM1 peptide (a totally random control peptide, ALAETCQNAWA (SEQ ID NO: 7)) with Chariot. Briefly, the wild-type Nef-GFP clone and the SMR peptides were complexed with Chariot reagent for 30 minutes at RT. The DNA/peptide/Chariot complex was added to HEK293 cells in serum-free media, and the cells were plated. Following incubation for 2 hours at 37° C., media with serum was added to the dish, and the cells were incubated at 37° C. for 48 h. The media was then collected and assayed for secretion using a spectrofluorimeter. The conditioned supernatants from these cultures were assayed for GFP fluorescence by plate reader.

In data set [3] the test system is HIV-1 Nef-GFP secretion, cell line H. As to the kind of experiment: HIV-1 Nef-GFP induced secretion, fluorescent plate reader assay. The format is cell-based. Particulars: HIV-1 Nef-GFP (sM1 column head prints GFP/sM1).
The next data set deals with pNL4-3 in Jurkat cells. Briefly: p24 assay of virion production after pNL4-3 co-transfection. Format: cell-based, HIV. Particulars: Jurkat; for p24: co-transfected with pNL4-3; for Effect (a/b): p24 of sample / p24 of pNL4-3 + sM1. The procedure: I. Jurkat cells were co-transfected as shown below: (transfection efficiency 30-40% by Chariot Kit):
(§1) pNL4-3 is a clone containing the viral genome. Transfection into cells allows expression of the viral genome and ultimately virion formation and release. The amount of virion production in the extracellular supernatant is measured through p24 protein (viral protein). Samples were collected at 48 hours and 96 hours post-infection.
(§2) At 48 hr postinfection two plates in each group were removed and analyzed by: • a. p24 assay • b. Nef assay • c. Infectivity assay • At 96 hr postinfection the other two plates in each group were removed and analyzed by: • a. p24 assay • b. Nef assay • c. Infectivity assay

Data set [4] deals with HIV-1 Gag-GFP secretion, HEK293. As to the kind of experiment: HIV-1 Gag-GFP induced secretion, fluorescent plate reader assay. The format is cell-based. Particulars: HEK293, HIV-1 Gag-GFP (sM1 column head prints GFP/sM1), 0.5 μg peptide, 48 hours. The procedure: (§3) Cells were co-transfected with 0.5 μg of pQBI-HIV Gag-GFP (expresses wild type Gag protein) and either 0.5 μg of HIV-1 Nef SMRwt, SMRmut peptide, sM1 peptide or untransfected controls with Chariot for 48 hours. The conditioned supernatants from these cultures were assayed for GFP fluorescence by plate reader.

The test system of data set [5] is HIV-1 Gag-GFP secretion, Jurkat. Described as above. The format is cell-based. Particulars: HIV-1 Gag-GFP (sM1 column head prints GFP/sM1), 0.5 μg peptide, 48 hours. The procedure:
as §3

Data set [6] has as its system HIV-1 Gag-GFP secretion, U937. The data set is described as above. The format is cell-based. Particulars: U937, HIV-1 Gag-GFP (sM1 column head prints GFP/sM1), 0.5 μg peptide, 48 hours. The procedure:
as §3

The test system of data set [7] is HIV-1 Gag-GFP secretion, THP-1. The data set is described as above. Format: cell-based. Particulars: THP-1, HIV-1 Gag-GFP (sM1 column head prints GFP/sM1), 0.5 μg peptide, 48 hours. The procedure: as §3
The test system of another data set is pNL4-3 in 293 cells. As to the kind of experiment: p24 assay of virion production after pNL4-3 co-transfection. Format: cell-based, HIV. Particulars: for p24: co-transfected with pNL4-3; for Effect (a/b): p24 of sample / p24 of pNL4-3 + sM1. The procedure: as §1, §2
Data set [8] deals with Gag-GFP + HIV-1wtNef-RFP secretion, THP-1 Monocyte. As to the kind of experiment: Gag-GFP secretion in presence of wtNef-RFP, fluorescent plate reader assay. The format is cell-based. Particulars: Gag-GFP + HIV-1wtNef-RFP + peptide, 48 hours. The procedure:
(§4) Cells were transfected with the pQBI-HIV Gag-GFP construct, wtNef-RFP, and either the antagonist (SMRwt peptide), the negative control SMRmt peptide, or a random peptide sM1 with Chariot for 48 hours. The conditioned supernatants from these cultures were assayed for GFP fluorescence by plate reader.

Data set [9] has as its system Gag-GFP + HIV-1wtNef-RFP secretion, Jurkat. The data set is described as above. Particulars: Jurkat, Gag-GFP + HIV-1wtNef-RFP + peptide, 48 hours. The format is cell-based. The procedure:
as §4

Mortalin, sequence (P38646 47-679): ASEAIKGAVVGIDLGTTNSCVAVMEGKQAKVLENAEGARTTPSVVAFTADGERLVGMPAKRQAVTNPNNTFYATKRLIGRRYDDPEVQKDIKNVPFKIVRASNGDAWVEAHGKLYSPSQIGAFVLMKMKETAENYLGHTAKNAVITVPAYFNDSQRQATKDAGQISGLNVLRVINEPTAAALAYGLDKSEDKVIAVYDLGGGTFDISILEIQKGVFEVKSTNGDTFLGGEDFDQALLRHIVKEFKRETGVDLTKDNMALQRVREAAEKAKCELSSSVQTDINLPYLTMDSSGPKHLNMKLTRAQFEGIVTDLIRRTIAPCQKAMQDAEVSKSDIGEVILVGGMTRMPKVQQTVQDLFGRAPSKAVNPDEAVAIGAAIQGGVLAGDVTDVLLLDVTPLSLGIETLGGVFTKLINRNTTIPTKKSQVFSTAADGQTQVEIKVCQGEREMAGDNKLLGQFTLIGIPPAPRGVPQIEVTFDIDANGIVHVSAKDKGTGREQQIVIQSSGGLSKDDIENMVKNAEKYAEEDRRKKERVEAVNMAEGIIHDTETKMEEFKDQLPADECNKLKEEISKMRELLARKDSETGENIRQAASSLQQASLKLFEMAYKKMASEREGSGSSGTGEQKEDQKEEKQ

Consider `CCn1c(=O)/c(=C2\Sc3ccccc3N2C)s/c1=C\c1cccc[n+]1CC.[Cl-]` [MKT-077], for which, in data set [1], the “toxicity in clinical trials” value was “renal toxicity”. The “death of cancer cells” value in the data set on human tumor cell lines (literature (Deocaris et al. 2007)) is on record as “causes selective death of cancer cells”. In addition, in the data set on human tumor cell lines (literature), the “senescence in human tumor cell lines” value is recorded as “inducing senescence”. In addition, the “binding to Mortalin” value on Mortalin is on record as “binds to the nucleotide-binding domain (NBD) of Mortalin”.
In the case of “ALAETCQNAWA [sM1, a totally random control peptide]”, the “release of NefGFP into the extracellular supernatant (GFP fluorescence)” value in data set [2] is “no effect”. Besides, the “Increase in Secretion (relative to untransfected cells), exp condition/UT” value in data set [3] came to 1.05x; in [4], 2.05x; in data set [5], 1.09x; in data set [6], 1.05x; in data set [7], 0.85x. In addition, the p24 in the data set on pNL4-3 in Jurkat cells (48 hr) is 0 pg/mL; with pNL4-3 in Jurkat cells (96 hr) it was 30 pg/mL; with pNL4-3 in 293 cells (293, 48 hr), 45 pg/mL; in the data set on pNL4-3 in 293 cells (293, 96 hr), 960 pg/mL. Also, the “Effect (a/b)” value with pNL4-3 in Jurkat cells (48 hr) was 1; in the data set with pNL4-3 in Jurkat cells (96 hr), 1; in the data set on pNL4-3 in 293 cells (293, 48 hr), 1.0; in the data set with pNL4-3 in 293 cells (293, 96 hr), 1. In addition, the “Secretion relative to untransfected cells” value in data set [8] (first line) is reported as 43.11x; in data set [8] (second line (not explained)), 20.51x; in [9] (first line) it was 61.99x; in data set [9] (second line (not explained)), 40.36x.
